Three compounds from patent US9731001B2, “Three-dimensional cavities of dendritic cell immunoreceptor (DCIR), compounds binding thereto and therapeutic applications related to inhibition of human immunodeficiency virus type-1 (HIV-1)” (priority 2011, dated 2017) can be followed below.

One data set relates to HIV-1 (NL4-3). Put plainly: HIV-1 binding/entry on H2O2-treated (apoptotic) CD4TL (p24). The class given is cell-based. Conditions: CD4TL treated with 30 μM H2O2 16 h; NL4-3 1 h; FIG. 8 panel A. As for the experimental part: FIGS. 8A and 8B are bar graphs showing the impact of DCIR inhibitors on HIV-1 transmission by apoptotic CD4^+ T cells. Target CD4^+ T cells (1×10^6) were treated for 16 h with H2O2 (30 μM) to induce the surface expression of DCIR. Cells were treated with site A inhibitors (1 and 4) or site B inhibitors (1 and 2) or vehicle (DMSO). Panel A: Cells were next exposed to NL4-3 (100 ng/ml of p24) for 1 h at 37° C., extensively washed to remove unadsorbed virions before assessing p24 content. Panel B: Cells were first incubated with NL4-3 (100 ng/ml of p24) for 2 h at 37° C., washed extensively to remove unadsorbed virions and cultured in complete RPMI-1640 supplemented with rhIL-2 for the time indicated. Cell-free supernatants were then collected and assayed for p24 content. Data shown correspond to the means±sem of 3 independent experiments performed in triplicate for panel A and the means±SEM of 2 independent experiments for panel B. The asterisks denotes statistically significant data (*, P<0.05; **, P<0.01; ***, P<0.001).
Apoptosis was induced in CD4TL activated with 30 μM H2O2 for 16 h before performing the following experimental procedures. To assay binding/entry, cells (1×10^6) were incubated for 60 min at 37° C. with NL4-3 (100 ng of p24). After three extensive washes with PBS to remove un-adsorbed virus, HIV-1 binding was quantified by estimating p24 content. […]

A further data set deals with Polarized CD4 Th17 cells. Put plainly: Toxicity by MTT assay, polarized CD4 Th17 cells. The data set is classed as cell-based, human. Conditions: Th17 CD4T cells; 10 uM; 10 days. On the procedure:
(§1) FIGS. 14A-14F are a bar graphs showing the impact of the DCIR-EPS inhibitor (Cpd B2) on viability and apoptosis of TH17 polarized CD4 T cells or PHA-L/activated CD4T cells according to Example 8. Polarized CD4 TH17 cells (left panels) or PHA-L/IL-2 activated CD4 T cells (right panels) were either untreated or treated with 10 μM of DCIR-EPS inhibitor for 10 min at 37° C. Cells were then contacted with NL4-3BalEnv for 2 hrs and washed three times with PBS to remove non-adsorbed virus. Cells were then incubated for 10 days and toxicity was measured using the MTT assay (upper panels). In parallel, cells were incubated for 24 hrs and stained with Z-Vad-FMK FITC Abs to measure apoptosis) (middle panels) or with DCIR Abs lower panels).
(§2) After observing the inhibition of p24 content in Th17 cells by the DCIR inhibitor (Cpd B2), the impact of the DCIR inhibitor on cell viability and apoptosis was determined (FIG. 14). Polarized CD4 Th17 cells (FIG. 14A, 14C, 14E) or PHA-L/IL-2 CD4T cells (FIGS. 14B, 14D, 14F) were either untreated (DMSO) or treated with 10 uM of DCIR inhibitor for 10 minutes at 37° C. and then incubated with NL4-3BalEnv or mock virus for 2 hours. […] DCIR expression on Th17 CD4 T cells and PHA-L/IL-2 activated CD4 T cells was measured with or without treatment with the DCIR inhibitor (FIGS. 14E, 14F). […]

The next data set concerns PHA-L/IL-2 CD4 T cells. Put plainly: Apoptosis (Z-Vad-FMK FITC), PHA-L/IL-2 CD4 T cells. The class given is cell-based, human. The conditions noted are these: 10 uM, 24 hrs. On the procedure: as §1, §2
A further data set relates to Th17 CD4 T cells. Put plainly: Apoptosis (Z-Vad-FMK FITC), Th17 CD4 T cells. The class given is cell-based, human. The conditions noted are these: 10 uM, 24 hrs. On the procedure:
as §1, §2

The test system of data set [1] is HIV-1 (NL4-3BalEnv). Put plainly: HIV replication in PHA/IL-2 activated CD4T cells (p24). The conditions noted are these: 10 μM. The class given is cell-based. On the procedure: (§3) FIGS. 13A and 13B are a bar graphs showing impact of the DCIR-EPS inhibitor (Cpd B2) on HIV replication by activated Th17 polarized CD4T cells, according to Example 8. Polarized CD4 Th17 cells (FIG. 13A) and PHA/IL-2 activated CD4T cells (FIG. 13B) were either untreated or treated with 10 μM of DCIR-EPS inhibitor (Cpd B2) for 10 min at 37° C. Cells were then exposed to NL4-3BalEnv for 2 hrs. After three washes with PBS to remove non-adsorbed virus, cells were cultured during 10 days. Viral replication was quantified by measuring the HIV-p24 content in culture supernatants. Data represent means±SD of triplicate samples from the same patient. Asterisks denote statistically significant differences (**, P<0.01), (*, P<0.05).
(§4) It was assessed whether the DCIR inhibitor (Compound B2) could reduce viral production. Polarized Th17 CD4T cells (FIG. 13A) and PHA/IL-2 activated CD4T cells (FIG. 13B) were pretreated or not with DCIR inhibitor (Cpd B2) before being put into contact with NL4-3BalEnv. Cells were washed and incubated for 10 days and then p24 content was measured. […] Prevention of Th17 infection could be contributed to maintain an adequate intestinal homeostasis.

Data set [2] deals with PHA-L/IL-2 activated CD4 T cells. Put plainly: Toxicity by MTT assay, PHA-L/IL-2 activated CD4 T cells. The class given is cell-based, human. The conditions noted are these: 10 uM, 10 days. As for the experimental part: as §1, §2
Data set [3] concerns HIV-1 (NL4-3BalEnv). Put plainly: HIV replication in polarized Th17 CD4T cells (p24). The conditions noted are these: 10 μM, 3, 7 and 10 days of incubation. The data set is classed as cell-based. As for the experimental part: as §3, §4
Data set [4] concerns DCIR. Put plainly: DCIR expression on PHA-L/IL-2 activated CD4 T cells. The class given is cell-based, human. Conditions: 10 uM. On the procedure: as §1, §2
The subject of data set [5] is DCIR. Put plainly: DCIR expression on Th17 CD4 T cells. The class given is cell-based, human. Conditions: 10 uM. As for the experimental part:
as §1, §2

SMILES strings stand for the structures.

Take `O=C(c1ccccc1)c1cc2ccccc2o1` [Compound B1, 1-benzofuran-2-yl(phenyl)methanone]: the “decrease of HIV-1 attachment to H2O2 treated cells” value in the data set on HIV-1 (NL4-3) was approximately 40%.

Turning to `O=C(/C=C/C=C/c1ccccc1)c1ccccc1` [Compound A1, 1,5-diphenyl-2,4-pentadien-1-one], the “decrease of HIV-1 attachment to H2O2 treated cells” value with HIV-1 (NL4-3) was “about 50%”.

`Cc1ccc(/N=[N+](\[O-])c2ccc(C)cc2)cc1` [Compound B2, 1-methyl-4-[(4-methylphenyl)-NNO-azoxy]benzene]: the “toxic effect (MTT assay)” value (in the data set on Polarized CD4 Th17 cells; in [2]) was “did not have a toxic effect” throughout. Also, the values for the apoptosis result with PHA-L/IL-2 CD4 T cells and in the data set with Th17 CD4 T cells were “underwent less apoptosis” and “did not have any impact on apoptosis”, respectively. In addition, the p24 content entry with HIV-1 (NL4-3BalEnv) [1] (after 3 and 7 days) is “non-significant trend for reduction”; in the data set with HIV-1 (NL4-3BalEnv) [1] (after 10 days), “significant reduction”; in the data set on HIV-1 (NL4-3BalEnv) [3], “significantly reduced p24 content”. Moreover, the DCIR expression entry in the data set with DCIR [4] is “marked reduction in DCIR expression”; in the data set with DCIR [5] it was “no difference in DCIR expression”.
